From publication PMC8698454, “Anti-Colonization Effect of Au Surfaces with Self-Assembled Molecular Monolayers Functionalized with Antimicrobial Peptides on S. epidermidis” (Antibiotics, 2021)
≈ marks a conversion by molar mass, not a printed value. Read-outs that look alike come from different tables or passages of the source. Where a SMILES comes first, the peptide text is derived from it. [ ]: non-standard residue; d: D form. Lys(N3) = [N-]=[N+]=NCCCC[C@H](N)C(=O)O

Assays:
Gram-negative bacteria = type: cell-based, E. coli and P. aeruginosa
Experimental: (§1) The minimal inhibitory concentration (MIC) of peptides 1a, 1b, 2a, and 2b were determined by broth microdilution according to the Clinical Laboratory Standard Institute (CLSI) method […]-A9. The MICs of the peptides 1c, 1d, 2c, and 2d were determined by broth dilution according to the European Committee for Antimicrobial Susceptibility Testing (EUCAST). Final concentrations of 0.5-256 μg/mL were tested against a panel of reference bacteria-S. aureus (ATCC 9144), S. epidermidis (1457), E. coli (ATCC 25922), and P. aeruginosa (ATCC 27853). Each strain was tested in biological triplicate. The MIC values were defined as the lowest concentration of the peptides resulting in no visual growth.

Gram-positive bacteria = type: cell-based, S. aureus and S. epidermidis
Experimental: as §1

[1] = system: Staphylococcus aureus ATCC 9144; type: cell-based; settings: for Antimicrobial Activity (MIC) S. aureus: ATCC 9144; for MIC S. aureus ATCC 9144: Table S3
Experimental: as §1

[2] = system: Staphylococcus epidermidis 1457; type: cell-based; settings: for Antimicrobial Activity (MIC) S. epidermidis: 1457; for MIC S. epidermidis 1457: Table S3
Experimental: as §1

[3] = system: Escherichia coli ATCC 25922; type: cell-based; settings: for Antimicrobial Activity (MIC) E. coli: ATCC 25922; for MIC E. coli ATCC 25922: Table S3
Experimental: as §1

[4] = system: Pseudomonas aeruginosa ATCC 27853; type: cell-based; settings: for Antimicrobial Activity (MIC) P. aeruginosa: ATCC 27853; for MIC P. aeruginosa ATCC 27853: Table S3
Experimental: as §1

[5] = technical replicate 1, biological replicate BR1
[6] = technical replicate 1, biological replicate BR2
[7] = technical replicate 1, biological replicate BR3
[8] = technical replicate 2, biological replicate BR1
[9] = technical replicate 2, biological replicate BR2
[10] = technical replicate 2, biological replicate BR3
[11] = technical replicate 3, biological replicate BR1
[12] = technical replicate 3, biological replicate BR2
[13] = technical replicate 3, biological replicate BR3

[N-]=[N+]=NCCCC[C@H](NC(=O)[C@H](Cc1ccccc1)NC(=O)[C@H](CCCNC(=N)N)NC(=O)[C@H](Cc1c[nH]c2ccccc12)NC(=O)[C@H](Cc1c[nH]c2ccccc12)NC(=O)[C@@H](N)CCCNC(=N)N)C(N)=O [1c] (H-RWWRF[Lys(N3)]-NH2)
MIC against Gram-negative bacteria (Gram-negative bacteria): 64 µg/mL (≈ 63.8 µM)
MIC against Gram-positive bacteria (Gram-positive bacteria): 16 to 32 µg/mL
Antimicrobial Activity (MIC) S. aureus [1]: 32 µg/mL
MIC S. aureus ATCC 9144 [1, 5]: 32 µg/mL (≈ 31.9 µM)
MIC S. aureus ATCC 9144 [1, 6]: 32 µg/mL (≈ 31.9 µM)
MIC S. aureus ATCC 9144 [1, 7]: 32 µg/mL (≈ 31.9 µM)
MIC S. aureus ATCC 9144 [1, 8]: 32 µg/mL (≈ 31.9 µM)
MIC S. aureus ATCC 9144 [1, 9]: 32 µg/mL (≈ 31.9 µM)
MIC S. aureus ATCC 9144 [1, 10]: 32 µg/mL (≈ 31.9 µM)
MIC S. aureus ATCC 9144 [1, 11]: 32 µg/mL (≈ 31.9 µM)
MIC S. aureus ATCC 9144 [1, 12]: 32 µg/mL (≈ 31.9 µM)
MIC S. aureus ATCC 9144 [1, 13]: 32 µg/mL (≈ 31.9 µM)
Antimicrobial Activity (MIC) S. epidermidis [2]: 16 µg/mL
MIC S. epidermidis 1457 [2, 5]: 16 µg/mL (≈ 15.9 µM)
MIC S. epidermidis 1457 [2, 6]: 16 µg/mL (≈ 15.9 µM)
MIC S. epidermidis 1457 [2, 7]: 16 µg/mL (≈ 15.9 µM)
MIC S. epidermidis 1457 [2, 8]: 16 µg/mL (≈ 15.9 µM)
MIC S. epidermidis 1457 [2, 9]: 16 µg/mL (≈ 15.9 µM)
MIC S. epidermidis 1457 [2, 10]: 16 µg/mL (≈ 15.9 µM)
MIC S. epidermidis 1457 [2, 11]: 16 µg/mL (≈ 15.9 µM)
MIC S. epidermidis 1457 [2, 12]: 16 µg/mL (≈ 15.9 µM)
MIC S. epidermidis 1457 [2, 13]: 16 µg/mL (≈ 15.9 µM)
Antimicrobial Activity (MIC) E. coli [3]: 64 µg/mL
MIC E. coli ATCC 25922 [3, 5]: 32 µg/mL (≈ 31.9 µM)
MIC E. coli ATCC 25922 [3, 6]: 64 µg/mL (≈ 63.8 µM)
MIC E. coli ATCC 25922 [3, 7]: 32 µg/mL (≈ 31.9 µM)
MIC E. coli ATCC 25922 [3, 8]: 64 µg/mL (≈ 63.8 µM)
MIC E. coli ATCC 25922 [3, 9]: 64 µg/mL (≈ 63.8 µM)
MIC E. coli ATCC 25922 [3, 10]: 32 µg/mL (≈ 31.9 µM)
MIC E. coli ATCC 25922 [3, 11]: 64 µg/mL (≈ 63.8 µM)
MIC E. coli ATCC 25922 [3, 12]: 64 µg/mL (≈ 63.8 µM)
MIC E. coli ATCC 25922 [3, 13]: 32 µg/mL (≈ 31.9 µM)
Antimicrobial Activity (MIC) P. aeruginosa [4]: 64 µg/mL
MIC P. aeruginosa ATCC 27853 [4, 5]: 64 µg/mL (≈ 63.8 µM)
MIC P. aeruginosa ATCC 27853 [4, 6]: 64 µg/mL (≈ 63.8 µM)
MIC P. aeruginosa ATCC 27853 [4, 7]: 32 µg/mL (≈ 31.9 µM)
MIC P. aeruginosa ATCC 27853 [4, 8]: 64 µg/mL (≈ 63.8 µM)
MIC P. aeruginosa ATCC 27853 [4, 9]: 64 µg/mL (≈ 63.8 µM)
MIC P. aeruginosa ATCC 27853 [4, 10]: 32 µg/mL (≈ 31.9 µM)
MIC P. aeruginosa ATCC 27853 [4, 11]: 64 µg/mL (≈ 63.8 µM)
MIC P. aeruginosa ATCC 27853 [4, 12]: 64 µg/mL (≈ 63.8 µM)
MIC P. aeruginosa ATCC 27853 [4, 13]: 32 µg/mL (≈ 31.9 µM)

[N-]=[N+]=NCCCC[C@@H]1NC(=O)[C@H](Cc2ccccc2)NC(=O)[C@H](CCCNC(=N)N)NC(=O)[C@H](Cc2c[nH]c3ccccc23)NC(=O)[C@H](Cc2c[nH]c3ccccc23)NC(=O)[C@H](CCCNC(=N)N)NC1=O [1d] (cyclo(RWWRF[Lys(N3)]))
MIC against Gram-positive bacteria (Gram-positive bacteria): 8 µg/mL (≈ 8.11 µM)
Antimicrobial Activity (MIC) S. aureus [1]: 8 µg/mL
MIC S. aureus ATCC 9144 [1, 5]: 8 µg/mL (≈ 8.11 µM)
MIC S. aureus ATCC 9144 [1, 6]: 16 µg/mL (≈ 16.2 µM)
MIC S. aureus ATCC 9144 [1, 7]: 8 µg/mL (≈ 8.11 µM)
MIC S. aureus ATCC 9144 [1, 8]: 8 µg/mL (≈ 8.11 µM)
MIC S. aureus ATCC 9144 [1, 9]: 16 µg/mL (≈ 16.2 µM)
MIC S. aureus ATCC 9144 [1, 10]: 8 µg/mL (≈ 8.11 µM)
MIC S. aureus ATCC 9144 [1, 11]: 8 µg/mL (≈ 8.11 µM)
MIC S. aureus ATCC 9144 [1, 12]: 16 µg/mL (≈ 16.2 µM)
MIC S. aureus ATCC 9144 [1, 13]: 16 µg/mL (≈ 16.2 µM)
Antimicrobial Activity (MIC) S. epidermidis [2]: 8 µg/mL
MIC S. epidermidis 1457 [2, 5]: 8 µg/mL (≈ 8.11 µM)
MIC S. epidermidis 1457 [2, 6]: 8 µg/mL (≈ 8.11 µM)
MIC S. epidermidis 1457 [2, 7]: 16 µg/mL (≈ 16.2 µM)
MIC S. epidermidis 1457 [2, 8]: 8 µg/mL (≈ 8.11 µM)
MIC S. epidermidis 1457 [2, 9]: 8 µg/mL (≈ 8.11 µM)
MIC S. epidermidis 1457 [2, 10]: 16 µg/mL (≈ 16.2 µM)
MIC S. epidermidis 1457 [2, 11]: 8 µg/mL (≈ 8.11 µM)
MIC S. epidermidis 1457 [2, 12]: 8 µg/mL (≈ 8.11 µM)
MIC S. epidermidis 1457 [2, 13]: 16 µg/mL (≈ 16.2 µM)
Antimicrobial Activity (MIC) E. coli [3]: 64 µg/mL
MIC E. coli ATCC 25922 [3, 5]: 64 µg/mL (≈ 64.9 µM)
MIC E. coli ATCC 25922 [3, 6]: 64 µg/mL (≈ 64.9 µM)
MIC E. coli ATCC 25922 [3, 7]: 64 µg/mL (≈ 64.9 µM)
MIC E. coli ATCC 25922 [3, 8]: 64 µg/mL (≈ 64.9 µM)
MIC E. coli ATCC 25922 [3, 9]: 64 µg/mL (≈ 64.9 µM)
MIC E. coli ATCC 25922 [3, 10]: 64 µg/mL (≈ 64.9 µM)
MIC E. coli ATCC 25922 [3, 11]: 64 µg/mL (≈ 64.9 µM)
MIC E. coli ATCC 25922 [3, 12]: 64 µg/mL (≈ 64.9 µM)
MIC E. coli ATCC 25922 [3, 13]: 64 µg/mL (≈ 64.9 µM)
Antimicrobial Activity (MIC) P. aeruginosa [4]: 128 µg/mL
MIC P. aeruginosa ATCC 27853 [4, 5]: 128 µg/mL (≈ 130 µM)
MIC P. aeruginosa ATCC 27853 [4, 6]: 256 µg/mL (≈ 260 µM)
MIC P. aeruginosa ATCC 27853 [4, 7]: 128 µg/mL (≈ 130 µM)
MIC P. aeruginosa ATCC 27853 [4, 8]: 128 µg/mL (≈ 130 µM)
MIC P. aeruginosa ATCC 27853 [4, 9]: 256 µg/mL (≈ 260 µM)
MIC P. aeruginosa ATCC 27853 [4, 10]: 128 µg/mL (≈ 130 µM)
MIC P. aeruginosa ATCC 27853 [4, 11]: 128 µg/mL (≈ 130 µM)
MIC P. aeruginosa ATCC 27853 [4, 12]: 256 µg/mL (≈ 260 µM)
MIC P. aeruginosa ATCC 27853 [4, 13]: 128 µg/mL (≈ 130 µM)
